Results as given in US20050042714A1, “Glycoconjugates of sialic acid derivates, methods for their production and use thereof” (priority 2001, published 2005).

Assays:
Format in all cases: cell-based, human
[1] = test system: HL60-I cells; test: uptake of peracetylated/esterified NeuAc: VVA and TML lectin staining by flow cytometry; details: for effect on cell surface sialylation (VVA and TML binding): 0.03 to 1 mM (NeuAc 1 or 5 mM), 0.5% DMSO
Method: Peracetylation of NeuAc only facilitates uptake if the carboxyl group is additionally esterified. Hyposialylated HL60-I cells were cultivated in the presence of indicated synthetic sialic acid analogue (stock solution 200 mM in DMSO) ranging from 0.03 to 1 mM or 0, 1 or 5 mM NeuA for 72 h with DMSO concentrations adjusted to 0.5%. Cells were stained with either directly fluorochrome-coupled lectin VVA, or biotin-coupled lectin (TML) and streptavidin-FITC for analysis by flow cytometry. Values given are relative factors of change of the mean fluorescence intensity of pretreated cells relative to untreated cells. The bars represent arithmetic means±SD (n=3). Molecular structures are given below the diagram.
Sugars are very hydrophilic and it has been shown that increasing the hydrophobicity by peracetylation of hydroxyl groups enables or facilitates uptake of disaccharides (Collins, B. E., Fralich, T. J., Itonori, S., Ichikawa, Y. and Schnaar, R. L. (2000) Glycobiology, 10, 11-20; Sarkar, A. K., Fritz, T. A., Taylor, W. H. and Esko, J. D. (1995) Proc Natl Acad Sci USA, 92, 3323-7; Sarkar, A. K., Rostand, K. S., Jain, R. K., Matta, K. L. and Esko, J. D. (1997) J Biol Chem, 272, 25608-16). For ManNAc derivatives it has been shown that peracetylation reduces required medium concentrations (Collins et al., 2000). The acetyl groups are cleaved-off intracellularly by cellular esterases (Collins et al., 2000; Sarkar et al., 1995; Sarkar et al., 1997) and the derivatives are then processed as known for the non-acetylated sugars. In order to address the question whether peracetylation also facilitates uptake of N-acetylneuraminic acid, HL60-I cells were cultivated in the presence of peracetylated NeuAc at concentrations ranging from 0.03 mM to 1 mM for 3 days. Changes in cell surface sialylation were measured by flow cytometry using Vicia Villosa agglutinin (VVA) and Tritrichomonas mobilensis lectin (TML). […] This represents a reduction in concentration by more than 16-fold and is in a similar range as reported for peracetylated ManNAc and ManNAc (Collins et al., 2000).
(§1) Lyophilized FITC-conjugated lectins Vicia villosa (VVA) was obtained from Sigma, dissolved in H2O (1 mg/ml), aliquoted and stored at −20° C. according to the manufacturer's instructions. FITC-conjugated Limax flavus agglutinin (LFA) was from EY Laboratories (San Manteo, Calif., USA) and biotin-coupled Tritrichomonas mobilensis agglutinin (TLM) from Calbiochem. Lectin staining procedure and fluorescence-activated cell scanning on a Becton Dickinson FACScan cytometer using Cellquest II software were carried out as described (Keppler, O. T., Molden-hauer, G., Oppenländer, M., Schwartz-Albiez, R., Berger, E. G., Funderud, S., and Pawlita, M. (1992) Eur J Immunol 22(11), 2777-81). Briefly, cells (3×10^5) were washed twice in cold PBS and then incubated in 100 μl PBS/0.05% NaN3, containing either fluorochrome-conjugated lectins VVA (50 μg/ml), LFA (20 μg/ml), or biotinylated TLM (20 μg/ml) for 45 min on ice in the dark. For biotinylated TLM a secondary incubation step with steptavidin-FITC (20 μg/ml) (Sigma) for 30 min on ice in the dark is required. After washing with PBS, cells were resuspended in 300 μl PBS and analyzed by flow cytometry.

[2] = test system: HL60-I cells; test: metabolic complementation assay: lectin staining (VVA, LFA, TLM) of analogue-treated cells by flow cytometry; details: 5 mM, 24 h; for effect on VVA binding: decrease = masking of GalNAc by sialic acid
Method: Medium supplementation with some synthetic sialic acid analogues restores cell surface sialylation in hyposialylated HL60-I cells. Cells were cultivated in the presence of indicated synthetic sialic acid analogue (5 mM) for 24 h and stained with either directly fluorochrome-coupled lectins (VVA, LFA) or biotin-coupled lectin (TLM) and streptavidin-FITC and analyzed by flow cytometry. Values are given as “relative factor of change” (RFC) of the “mean fluorescence intensity” (MFI) of sialic acid-treated cells relative to untreated cells. The bars represent arithmetic means±SD (n^34) of one (x) or ≧two experiments.
To test whether cells can incorporate synthetic sialic acid analogues from the culture medium, a metabolic complementation assay was performed on endogenously hyposialylated, UDP-GlcNAc-2-epimerase-deficient HL60-I cells.
Cells were cultivated for 24 h in the presence of one of 16 different synthetic sialic acid analogues, carrying distinct C5 or C9 modifications (FIG. 1), and subsequently, changes in cell surface sialylation were assessed by flow cytometry using three fluorochrome-conjugated sialic acid-sensitive lectins. Vicia villosa agglutinin (VVA) detects GalNAc residues, and its binding sites can be masked by the addition of terminal sialic acid residues.
In sugar supplementation assays, cells seeded at 5×10^5 cells/ml in culture medium buffered with 40 mM HEPES (pH 7.2) were cultivated for 24 h in the presence or absence of 5 mM sialic acids (stocks of 100 mM dissolved in H2O, stored at 4° C.).
as §1

[3] = test system: BJA-B K20 cells; test: HPLC of membrane-associated sialic acids from analogue-treated cells; details: serum-free, 5 mM, 48 h
Method: Sialic acid analogues are incorporated in cell surface glycoconjugates. HPLC chromatograms of DMB-derivatised sialic acids hydrolysed from glycoproteins of sialic acid analogue-treated BJA-B K20 cells. (A) standards, (B) untreated cells, (C) cells cultivated in 5-N-fluoroacNeu, (D) cells cultivated in 9-iodo-NeuAc. Peaks were identified as follows: NeuGc (internal standard), NeuAc, 5-N-fluoroac-Neu, 9-iodo-NeuAc, Na-pyruvate (internal standard). Internal standards were added to each sample.
To confirm that synthetic sialic acid analogues supplementing the medium were taken up and metabolically incorporated as analogues into surface sialoglyco-conjugates the membrane-associated sialic acid fraction was analyzed by High Performance Liquid Chromatography (HPLC). […]
To confirm that the modifications are still present after incorporation into glycoconjugates sialic acids were cleaved off cell surfaces and analyzed by HPLC. […] Sialic acids derivation was performed according to a method as given below and samples were analyzed on a reversed-phase C18 column as described (Keppler, O. T., Stehling, P., Herrmann, M., Kayser, H., Grunow, D., Reutter, W., and Pawlita, M. (1995) J Biol Chem 270(3), 1308-14).

SMILES: COC(=O)C1(OC(C)=O)C[C@H](OC(C)=O)[C@@H](NC(C)=O)[C@H]([C@H](OC(C)=O)[C@@H](COC(C)=O)OC(C)=O)O1 (stereo partly shown) [NeuAcperOAc-Me-ester]
- reduction in concentration relative to NeuAc ([1]; 0.3 mM vs 5 mM NeuAc): more than 16 fold
- effect on cell surface sialylation (VVA and TML binding) ([1]; HL60-I cells, 72 h): strongly increased cell surface sialylation
- medium concentration showing similar effects as 5 mM NeuAc ([1]; HL60-I cells, 72 h): 0.3 mM

SMILES: O=C(O)CCC(=O)N[C@H]1[C@H]([C@H](O)[C@H](O)CO)OC(O)(C(=O)O)C[C@@H]1O (stereo partly shown) [analogue m, 5-N-succinyl-neuraminic acid]
- effect on VVA binding [2]: weak or no effect on VVA binding

SMILES: CC(=O)N[C@H]1[C@H]([C@H](O)[C@H](O)CNC(=O)CN)OC(O)(C(=O)O)C[C@@H]1O (stereo partly shown) [analogue d, 9-N-aminoacetamido-9-deoxy-neuraminic acid]
- effect on VVA binding [2]: weak or no effect on VVA binding

SMILES: CC(=O)N[C@H]1[C@H]([C@H](O)[C@H](O)CNC(=O)CCC(=O)O)OC(O)(C(=O)O)C[C@@H]1O (stereo partly shown) [analogue e, 5-N-acetyl-9-deoxy-9-succinylamido-neuraminic acid]
- effect on VVA binding [2]: weak or no effect on VVA binding

SMILES: O=C(CF)N[C@H]1[C@H]([C@H](O)[C@H](O)CO)OC(O)(C(=O)O)C[C@@H]1O (stereo partly shown) [analogue j, 5-N-fluoroacetyl-neuraminic acid]
- effect on LFA binding [2]: increased binding of LFA
- effect on TLM binding [2]: increased binding
- effect on VVA binding [2]: significantly decreased VVA-binding
- share of membrane-associated sialic acids consisting of the analogue [3]: 90.5%

SMILES: CC(=O)NC[C@@H](O)[C@@H](O)[C@@H]1OC(O)(C(=O)O)C[C@H](O)[C@H]1NC(C)=O (stereo partly shown) [analogue c, 5-N-acetyl-9-acetamido-9-deoxy-neuraminic acid]
- changes in cell surface sialylation (lectin binding overall) [2]: failed to induce changes in cell surface sialylation

SMILES: CC(=O)N[C@H]1[C@H]([C@H](O)[C@H](O)CS(C)(=O)=O)OC(O)(C(=O)O)C[C@@H]1O (stereo partly shown) [analogue i, 5-N-acetyl-9-deoxy-9-methylsulfonyl-neuraminic acid]
- effect on LFA binding [2]: increased binding of LFA
- effect on TLM binding [2]: increased binding
- effect on VVA binding [2]: significantly decreased VVA-binding

SMILES: CC(=O)N[C@H]1[C@H]([C@H](O)[C@H](O)CN)OC(O)(C(=O)O)C[C@@H]1O (stereo partly shown) [analogue b, 5-N-acetyl-9-amino-9-deoxy-neuraminic acid]
- changes in cell surface sialylation (lectin binding overall) [2]: failed to induce changes in cell surface sialylation

SMILES: CC(=O)NC1C(OC(C)=O)CC(OC(C)=O)(C(=O)O)OC1C(OC(C)=O)C(COC(C)=O)OC(C)=O (stereo not shown) [NeuAcperOAc]
- effect on cell surface sialylation (VVA and TML binding) ([1]; HL60-I cells, 72 h): no effect on cell surface sialylation

SMILES: CSC[C@@H](O)[C@@H](O)[C@@H]1OC(O)(C(=O)O)C[C@H](O)[C@H]1NC(C)=O (stereo partly shown) [analogue h, 5-N-acetyl-9-deoxy-9-methylthio-neuraminic acid]
- effect on LFA binding [2]: increased binding of LFA
- effect on TLM binding [2]: increased binding
- effect on VVA binding [2]: significantly decreased VVA-binding

SMILES: CC(=O)N[C@H]1[C@H]([C@H](O)[C@H](O)CS)OC(O)(C(=O)O)C[C@@H]1O (stereo partly shown) [analogue g, 5-N-acetyl-9-deoxy-9-thio-neuraminic acid]
- effect on LFA binding [2]: increased binding of LFA
- effect on TLM binding [2]: increased binding
- effect on VVA binding [2]: significantly decreased VVA-binding

SMILES: CC(=S)N[C@H]1[C@H]([C@H](O)[C@H](O)CO)OC(O)(C(=O)O)C[C@@H]1O (stereo partly shown) [analogue n, 5-N-thioacetyl-neuraminic acid]
- effect on TLM binding [2]: increased binding
- effect on VVA binding [2]: significantly decreased VVA-binding

SMILES: CCOC(=O)C1(O)C[C@H](O)[C@@H](NC(C)=O)[C@H]([C@H](O)[C@H](O)CO)O1 (stereo partly shown) [analogue p, ethyl N-acetyl neuraminate]
- effect on LFA binding [2]: increased binding of LFA
- effect on TLM binding [2]: increased binding
- effect on VVA binding [2]: significantly decreased VVA-binding
- effect on LFA binding ([2]; listed as NeuAc-Et-Ester): very similar to those of NeuAc
- effect on TLM binding ([2]; listed as NeuAc-Et-Ester): very similar to those of NeuAc

SMILES: NCC(=O)N[C@H]1[C@H]([C@H](O)[C@H](O)CO)OC(O)(C(=O)O)C[C@@H]1O (stereo partly shown) [analogue l, 5-N-aminoacetyl-neuraminic acid]
- effect on VVA binding [2]: weak or no effect on VVA binding

SMILES: O=C(N[C@H]1[C@H]([C@H](O)[C@H](O)CO)OC(O)(C(=O)O)C[C@@H]1O)C(F)(F)F (stereo partly shown) [analogue k, 5-N-trifluoroacetyl-neuraminic acid]
- effect on VVA binding [2]: significantly decreased VVA-binding
